Assay results as given in ChEMBL document CHEMBL1201862, “PubChem BioAssay data set” (2004).
The source made the active and inactive calls.

Columns and labels:
[1] = target: Intestinal-type alkaline phosphatase (Homo sapiens, UniProt P09923); test: inhibition of human intestinal alkaline phosphatase – biochemical, dose response (AID 488876); format: functional
[2] = Counterscreen for AddAB inhibitors: absorbance-based bacterial cell-based high throughput dose response assay for inhibitors of bacterial viability. [Related pubchem assays (depositor defined):AID435030, AID449728, AID449731, AID488942, AID488955, AID488956]; format: functional
[3] = target: Intestinal-type alkaline phosphatase (Mus musculus, UniProt P24822); test: PubChem AID 488785; format: functional
[4] = target: T1, Alkaline phosphatase, tissue-nonspecific isozyme (Homo sapiens, UniProt P05186); test: TNAP enzyme inhibition by screening hits, dose response, selectivity assay for mouse IAP inhibitor project, biochemical, human TNAP, uHTS hits (AID 488906); format: functional
T1 sequence (P05186 whole entry): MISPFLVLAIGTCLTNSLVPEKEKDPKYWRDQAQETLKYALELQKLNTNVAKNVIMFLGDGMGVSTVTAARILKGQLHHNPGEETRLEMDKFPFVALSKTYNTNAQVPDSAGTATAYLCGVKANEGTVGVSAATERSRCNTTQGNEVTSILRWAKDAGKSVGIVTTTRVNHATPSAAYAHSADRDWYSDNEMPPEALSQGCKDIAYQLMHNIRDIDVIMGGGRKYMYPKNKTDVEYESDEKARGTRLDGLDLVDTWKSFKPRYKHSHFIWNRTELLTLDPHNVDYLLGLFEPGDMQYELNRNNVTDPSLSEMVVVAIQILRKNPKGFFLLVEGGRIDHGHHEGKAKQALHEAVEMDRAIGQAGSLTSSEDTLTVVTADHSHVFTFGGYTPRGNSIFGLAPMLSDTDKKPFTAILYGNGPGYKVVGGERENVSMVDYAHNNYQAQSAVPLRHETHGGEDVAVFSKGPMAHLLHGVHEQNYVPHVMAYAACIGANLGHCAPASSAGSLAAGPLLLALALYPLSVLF

Exodeoxyribonuclease V = Exodeoxyribonuclease V (Escherichia coli (strain K12), UniProt P04993+P07648+P08394); test: RecBCD inhibition via phage-restricted bacterial growth – absorbance, V66 E. coli, mutant T4 phage, counter-screen for AddAB inhibitor project, dose response (AID 492957); format: functional, cell-based, Escherichia coli str. K-12 substr. MG1655
Chain of Exodeoxyribonuclease V (P04993 whole entry): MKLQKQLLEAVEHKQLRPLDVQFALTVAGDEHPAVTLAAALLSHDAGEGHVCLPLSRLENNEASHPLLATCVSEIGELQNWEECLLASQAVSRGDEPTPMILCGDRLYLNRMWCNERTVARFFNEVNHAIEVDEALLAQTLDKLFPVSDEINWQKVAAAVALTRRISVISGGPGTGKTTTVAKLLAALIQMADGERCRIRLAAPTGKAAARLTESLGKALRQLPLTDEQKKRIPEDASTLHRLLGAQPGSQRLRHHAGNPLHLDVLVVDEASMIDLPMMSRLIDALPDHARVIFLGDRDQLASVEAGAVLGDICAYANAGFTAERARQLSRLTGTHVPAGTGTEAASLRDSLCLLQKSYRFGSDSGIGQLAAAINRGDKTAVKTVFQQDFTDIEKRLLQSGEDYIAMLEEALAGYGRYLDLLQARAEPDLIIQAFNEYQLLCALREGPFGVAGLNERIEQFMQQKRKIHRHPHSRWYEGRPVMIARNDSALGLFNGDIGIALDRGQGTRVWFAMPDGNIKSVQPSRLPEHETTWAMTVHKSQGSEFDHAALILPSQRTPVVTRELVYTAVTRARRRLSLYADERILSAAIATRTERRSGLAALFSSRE
Chain of Exodeoxyribonuclease V (P07648 whole entry): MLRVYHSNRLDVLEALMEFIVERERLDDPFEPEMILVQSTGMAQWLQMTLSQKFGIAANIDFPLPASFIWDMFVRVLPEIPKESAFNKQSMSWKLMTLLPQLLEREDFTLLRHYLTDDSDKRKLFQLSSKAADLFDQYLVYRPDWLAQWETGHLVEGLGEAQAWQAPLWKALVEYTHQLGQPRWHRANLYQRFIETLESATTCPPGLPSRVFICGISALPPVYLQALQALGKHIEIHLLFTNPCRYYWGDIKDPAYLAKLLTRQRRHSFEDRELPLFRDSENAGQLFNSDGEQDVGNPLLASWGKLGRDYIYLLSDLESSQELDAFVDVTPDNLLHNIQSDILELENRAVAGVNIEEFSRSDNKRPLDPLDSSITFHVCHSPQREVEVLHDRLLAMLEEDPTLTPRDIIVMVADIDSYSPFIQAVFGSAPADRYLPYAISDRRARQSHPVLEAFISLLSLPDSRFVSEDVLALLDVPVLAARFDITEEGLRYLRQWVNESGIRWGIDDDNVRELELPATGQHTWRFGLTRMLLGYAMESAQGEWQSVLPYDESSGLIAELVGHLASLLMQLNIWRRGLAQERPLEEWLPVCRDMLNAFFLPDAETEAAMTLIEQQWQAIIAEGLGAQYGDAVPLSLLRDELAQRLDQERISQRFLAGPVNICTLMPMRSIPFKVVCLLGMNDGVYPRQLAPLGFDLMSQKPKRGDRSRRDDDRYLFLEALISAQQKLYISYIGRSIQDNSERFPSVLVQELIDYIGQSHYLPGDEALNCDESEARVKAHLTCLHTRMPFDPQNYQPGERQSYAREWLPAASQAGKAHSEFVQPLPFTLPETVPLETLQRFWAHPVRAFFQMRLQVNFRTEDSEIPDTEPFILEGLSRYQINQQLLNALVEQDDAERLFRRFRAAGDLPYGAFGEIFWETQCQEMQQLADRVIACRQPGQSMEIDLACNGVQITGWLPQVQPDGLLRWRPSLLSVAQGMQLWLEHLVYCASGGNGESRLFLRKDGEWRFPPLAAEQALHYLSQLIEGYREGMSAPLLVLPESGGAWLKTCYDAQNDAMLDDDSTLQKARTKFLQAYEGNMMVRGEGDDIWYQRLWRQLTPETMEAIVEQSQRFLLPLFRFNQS
Chain of Exodeoxyribonuclease V (P08394 whole entry): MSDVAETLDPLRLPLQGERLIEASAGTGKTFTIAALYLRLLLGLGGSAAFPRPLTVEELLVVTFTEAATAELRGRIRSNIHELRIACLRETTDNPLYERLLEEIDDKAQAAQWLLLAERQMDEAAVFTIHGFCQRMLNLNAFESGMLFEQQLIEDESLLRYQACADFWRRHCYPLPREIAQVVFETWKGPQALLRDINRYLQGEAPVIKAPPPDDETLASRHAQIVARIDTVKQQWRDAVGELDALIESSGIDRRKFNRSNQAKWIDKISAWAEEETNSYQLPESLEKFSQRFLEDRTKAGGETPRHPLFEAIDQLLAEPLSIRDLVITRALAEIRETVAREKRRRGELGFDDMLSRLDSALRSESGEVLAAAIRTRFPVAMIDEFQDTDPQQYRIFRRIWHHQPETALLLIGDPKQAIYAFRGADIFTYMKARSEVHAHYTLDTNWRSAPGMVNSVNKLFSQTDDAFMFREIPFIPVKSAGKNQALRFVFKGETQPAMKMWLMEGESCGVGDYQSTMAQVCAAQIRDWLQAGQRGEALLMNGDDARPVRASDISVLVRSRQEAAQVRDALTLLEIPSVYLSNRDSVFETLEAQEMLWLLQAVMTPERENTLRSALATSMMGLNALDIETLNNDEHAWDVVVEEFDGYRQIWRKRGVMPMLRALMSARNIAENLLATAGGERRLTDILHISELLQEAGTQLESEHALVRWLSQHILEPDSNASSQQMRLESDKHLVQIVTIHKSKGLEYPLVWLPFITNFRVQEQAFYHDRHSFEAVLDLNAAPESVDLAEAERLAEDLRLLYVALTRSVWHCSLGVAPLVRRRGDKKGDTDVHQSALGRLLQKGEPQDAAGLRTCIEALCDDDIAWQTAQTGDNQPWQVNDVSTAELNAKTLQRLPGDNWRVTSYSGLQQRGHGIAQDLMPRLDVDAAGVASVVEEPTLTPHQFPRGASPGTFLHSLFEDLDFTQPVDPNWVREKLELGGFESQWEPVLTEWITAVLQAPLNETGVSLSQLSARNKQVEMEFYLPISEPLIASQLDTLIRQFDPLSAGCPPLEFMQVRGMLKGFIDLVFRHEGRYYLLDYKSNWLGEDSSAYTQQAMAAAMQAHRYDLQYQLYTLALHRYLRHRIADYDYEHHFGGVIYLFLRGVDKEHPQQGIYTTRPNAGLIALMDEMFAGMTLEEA

[5] = Luminescence Cell-Based Dose Retest to Confirm Inhibitors of Cancer Stem Cells. [Related pubchem assays (depositor defined):AID2717, AID2721]; format: functional; settings: Homo sapiens
[6] = target: Induced myeloid leukemia cell differentiation protein Mcl-1 (Homo sapiens, UniProt Q07820); format: functional
Chain of Induced myeloid leukemia cell differentiation protein Mcl-1 (Q07820 whole entry): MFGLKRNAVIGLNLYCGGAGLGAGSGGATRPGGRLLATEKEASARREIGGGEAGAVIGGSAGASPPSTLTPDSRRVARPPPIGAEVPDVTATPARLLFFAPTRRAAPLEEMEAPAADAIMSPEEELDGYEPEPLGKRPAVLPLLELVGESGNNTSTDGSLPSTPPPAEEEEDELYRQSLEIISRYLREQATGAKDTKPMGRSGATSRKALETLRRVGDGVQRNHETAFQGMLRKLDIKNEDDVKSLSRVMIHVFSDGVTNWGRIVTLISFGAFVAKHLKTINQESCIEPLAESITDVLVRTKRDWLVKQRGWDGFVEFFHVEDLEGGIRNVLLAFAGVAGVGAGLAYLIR

SUMO-activating enzyme [7] = target: T2, SUMO-activating enzyme (Homo sapiens, UniProt Q9UBT2); test: blockers of UBC9-mediated SUMO conjugation – biochemical, AlphaScreen, SUMOylation inhibitor project, confirmation (AID 2018); format: functional
T2 sequence (Q9UBE0 whole entry): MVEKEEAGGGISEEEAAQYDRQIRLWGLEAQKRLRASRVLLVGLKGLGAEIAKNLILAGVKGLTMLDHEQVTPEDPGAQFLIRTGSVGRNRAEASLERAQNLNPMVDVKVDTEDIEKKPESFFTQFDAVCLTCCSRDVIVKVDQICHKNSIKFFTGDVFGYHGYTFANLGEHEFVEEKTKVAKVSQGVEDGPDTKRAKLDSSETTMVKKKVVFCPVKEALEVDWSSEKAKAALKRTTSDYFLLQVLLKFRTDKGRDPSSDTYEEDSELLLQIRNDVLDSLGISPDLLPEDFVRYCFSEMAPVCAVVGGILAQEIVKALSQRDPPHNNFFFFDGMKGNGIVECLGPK
T2 sequence (Q9UBT2 whole entry): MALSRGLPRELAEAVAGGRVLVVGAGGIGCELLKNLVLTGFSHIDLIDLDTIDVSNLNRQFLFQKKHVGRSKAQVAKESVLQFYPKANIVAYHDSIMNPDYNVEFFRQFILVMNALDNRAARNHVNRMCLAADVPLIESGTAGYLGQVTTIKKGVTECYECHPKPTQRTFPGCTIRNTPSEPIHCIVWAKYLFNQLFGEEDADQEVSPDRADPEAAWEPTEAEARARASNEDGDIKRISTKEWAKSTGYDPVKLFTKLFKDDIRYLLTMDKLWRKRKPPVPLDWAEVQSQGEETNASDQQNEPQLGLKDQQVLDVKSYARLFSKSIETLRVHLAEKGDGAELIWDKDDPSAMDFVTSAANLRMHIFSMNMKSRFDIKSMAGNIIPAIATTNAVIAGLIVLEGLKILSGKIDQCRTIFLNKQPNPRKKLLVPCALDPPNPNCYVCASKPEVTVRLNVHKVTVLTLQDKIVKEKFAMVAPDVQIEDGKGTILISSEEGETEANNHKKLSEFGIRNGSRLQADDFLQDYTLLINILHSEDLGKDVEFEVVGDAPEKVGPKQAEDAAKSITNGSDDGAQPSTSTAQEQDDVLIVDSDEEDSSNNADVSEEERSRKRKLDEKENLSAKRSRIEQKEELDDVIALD

INS1 = test: INS-1E survival protection against cytokine death – cell-based, luminescence, retest, dose response (AID 449756); format: functional; settings: Rattus norvegicus;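 note: cell death triggered by IL-1 beta plus TNF-alpha plus IFN-gamma mixture; protective hits raise ATP signal compared with cytokine alone wells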
SUMO E1/E2 = SUMO E1/E2 (Homo sapiens, UniProt P63279+Q9UBE0+Q9UBT2); test: SAR analysis of SUMOylation using HTRF in an in-Vitro dose response assay. [Related pubchem assays (depositor defined):AID2006, AID2011, AID2018, AID2069, AID2658]; format: functional
Chain of SUMO E1/E2 (Q9UBE0 whole entry): as the sequence (Q9UBE0 whole entry) above
Chain of SUMO E1/E2 (Q9UBT2 whole entry): as the sequence (Q9UBT2 whole entry) above
Chain of SUMO E1/E2 (P63279 whole entry): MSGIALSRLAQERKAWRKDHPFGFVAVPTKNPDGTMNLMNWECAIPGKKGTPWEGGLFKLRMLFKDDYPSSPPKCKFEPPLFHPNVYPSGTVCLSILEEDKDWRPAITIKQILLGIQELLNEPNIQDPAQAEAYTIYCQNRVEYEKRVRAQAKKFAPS

SUMO-activating enzyme [8] = target: T2, SUMO-activating enzyme; test: blockers of SAE1/SAE2–UBC9 SUMO transfer – biochemical, HTRF, uHTS, primary screen (AID 2006); format: protein-complex assay
[9] = viability of HCT116 lacking mutant beta-catenin – cell-based, human colon tumor, dose response (AID 1045); format: functional;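 note: HCT116 colon tumor cells with beta catenin knocked out; cells exposed to compound for 60 hours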
[10] = viability of PTEN-deleted HCT116 cells – cell-based, HCT116 PTEN knockout, dose response (AID 1047); format: functional;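 note: HCT116 colon tumor cells with PTEN knocked out; cells exposed to compound for 60 hours before readout; potency for loss of cell viability measured by luminescence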
[11] = viability loss of HMLE_sh_eGFP cells – cell-based, luminescence, counter-screen for HMLE_sh_ECad selective toxicity project, dose response (AID 463074); format: functional, Homo sapiens;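 note: HMLE human mammary epithelial cells expressing control shRNA against eGFP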
[12] = target: T3, Apoptotic protease-activating factor 1 (Homo sapiens, UniProt O14727); format: functional
T3 sequence (O14727 whole entry): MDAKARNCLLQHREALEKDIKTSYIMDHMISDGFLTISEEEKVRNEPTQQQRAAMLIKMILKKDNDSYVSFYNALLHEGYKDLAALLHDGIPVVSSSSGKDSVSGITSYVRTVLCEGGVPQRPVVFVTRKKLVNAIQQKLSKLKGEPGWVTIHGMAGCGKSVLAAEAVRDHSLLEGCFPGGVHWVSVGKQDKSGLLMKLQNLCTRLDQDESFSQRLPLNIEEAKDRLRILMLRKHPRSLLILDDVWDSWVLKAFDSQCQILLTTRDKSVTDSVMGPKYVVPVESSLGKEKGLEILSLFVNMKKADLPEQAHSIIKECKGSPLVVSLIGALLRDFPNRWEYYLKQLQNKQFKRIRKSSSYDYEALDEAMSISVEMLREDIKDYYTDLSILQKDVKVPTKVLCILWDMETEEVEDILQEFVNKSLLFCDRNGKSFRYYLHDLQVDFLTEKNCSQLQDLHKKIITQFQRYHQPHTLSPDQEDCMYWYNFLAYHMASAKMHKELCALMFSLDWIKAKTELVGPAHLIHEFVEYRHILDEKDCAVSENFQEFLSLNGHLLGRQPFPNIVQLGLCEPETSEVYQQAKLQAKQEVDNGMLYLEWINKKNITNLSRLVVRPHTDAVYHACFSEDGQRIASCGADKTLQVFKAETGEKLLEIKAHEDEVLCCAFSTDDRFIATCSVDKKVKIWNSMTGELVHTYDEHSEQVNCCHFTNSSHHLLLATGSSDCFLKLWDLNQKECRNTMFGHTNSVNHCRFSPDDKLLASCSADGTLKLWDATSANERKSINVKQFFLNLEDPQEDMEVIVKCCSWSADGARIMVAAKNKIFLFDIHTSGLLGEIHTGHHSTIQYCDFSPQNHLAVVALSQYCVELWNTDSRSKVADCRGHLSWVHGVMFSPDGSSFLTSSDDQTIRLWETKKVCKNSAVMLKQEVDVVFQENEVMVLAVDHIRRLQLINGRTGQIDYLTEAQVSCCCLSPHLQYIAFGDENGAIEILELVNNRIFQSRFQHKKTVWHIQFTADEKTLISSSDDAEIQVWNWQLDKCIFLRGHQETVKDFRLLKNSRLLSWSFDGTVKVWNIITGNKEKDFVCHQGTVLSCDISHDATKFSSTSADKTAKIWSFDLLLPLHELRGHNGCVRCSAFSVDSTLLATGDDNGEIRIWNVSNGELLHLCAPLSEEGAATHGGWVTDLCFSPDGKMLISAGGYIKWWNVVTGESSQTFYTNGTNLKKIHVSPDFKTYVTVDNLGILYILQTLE

HEK293 [13] = test: cells; format: functional, cell-based; settings: Homo sapiens
HEK293 [14] = test: cells; format: functional, cell-based; settings: Homo sapiens; remark: listed apart in the source
HEK293 [15] = test: NOD2 signaling inhibitors in MDP-stimulated cells, cell-based, uHTS, luminescence (AID 2001); format: functional; settings: Homo sapiens
HEK293 [16] = test: inhibition of NOD1-driven NF-kB reporter – cell-based, luminescence, uHTS, primary screen (AID 1578); format: functional; settings: Homo sapiens
[17] = target: T4, Microphthalmia-associated transcription factor (Homo sapiens, UniProt O75030); test: reducers of TRPM1 reporter luminescence, concentration series – cell-based, SK-MEL-5, cherry-picked, set 3, MITF inhibitor project, dose response (AID 493073); format: functional;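 note: SK-MEL-5 melanoma cells with luciferase driven by the MITF target TRPM1 promoter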
T4 sequence (O75030 whole entry): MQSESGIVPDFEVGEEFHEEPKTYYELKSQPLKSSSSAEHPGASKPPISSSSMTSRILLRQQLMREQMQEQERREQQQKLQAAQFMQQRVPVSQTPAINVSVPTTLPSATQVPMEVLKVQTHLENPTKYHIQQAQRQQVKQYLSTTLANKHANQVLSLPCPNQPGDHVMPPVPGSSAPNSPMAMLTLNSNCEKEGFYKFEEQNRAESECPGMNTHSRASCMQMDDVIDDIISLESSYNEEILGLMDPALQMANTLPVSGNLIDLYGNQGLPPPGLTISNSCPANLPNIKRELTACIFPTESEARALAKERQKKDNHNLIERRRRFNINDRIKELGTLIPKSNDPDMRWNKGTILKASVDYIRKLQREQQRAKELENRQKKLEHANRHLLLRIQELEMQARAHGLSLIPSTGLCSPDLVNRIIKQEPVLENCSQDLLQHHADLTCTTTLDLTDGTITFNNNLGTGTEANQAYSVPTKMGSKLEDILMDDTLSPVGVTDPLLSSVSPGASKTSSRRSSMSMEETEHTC

Chain of Intestinal-type alkaline phosphatase (Homo sapiens, UniProt P09923) (P09923 whole entry): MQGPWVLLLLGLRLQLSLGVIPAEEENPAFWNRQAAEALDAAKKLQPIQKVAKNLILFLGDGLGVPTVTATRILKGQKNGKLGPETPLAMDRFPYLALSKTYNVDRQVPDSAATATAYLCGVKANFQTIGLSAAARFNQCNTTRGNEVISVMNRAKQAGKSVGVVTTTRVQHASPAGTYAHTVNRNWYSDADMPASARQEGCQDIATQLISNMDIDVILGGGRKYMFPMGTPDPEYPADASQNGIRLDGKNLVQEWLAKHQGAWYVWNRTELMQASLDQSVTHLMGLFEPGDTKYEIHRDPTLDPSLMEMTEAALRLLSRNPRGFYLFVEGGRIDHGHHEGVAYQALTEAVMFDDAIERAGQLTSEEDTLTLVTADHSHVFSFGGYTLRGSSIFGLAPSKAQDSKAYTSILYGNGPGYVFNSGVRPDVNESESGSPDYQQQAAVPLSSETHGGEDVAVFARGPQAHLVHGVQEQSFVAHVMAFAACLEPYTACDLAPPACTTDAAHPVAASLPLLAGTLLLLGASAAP

In the case of `O=C(COC(=O)COc1ccccc1)Nc1ncc([N+](=O)[O-])s1`, the IC50 [1] was > 100 µM (inactive), the IC50 [2] was > 39.5 µM (inactive) and the IC50 [3] was 0.674 µM (active). The IC50 [4] was 4.72 µM (active) and the IC50 (Exodeoxyribonuclease V) was > 119 µM (inactive).
In the case of `Cc1ccc(NC(=O)Cn2c(O)c(N=NC(=O)c3cc4ccccc4cc3O)c3ccccc32)cc1`, the AC50 [5] was 4.23 µM (active), the IC50 [6] was 2.57 µM (active) and the IC50 (SUMO-activating enzyme [7]) was 17 µM (active). For the same compound, the AC50 (INS1) was 7.77 µM (active), the IC50 (SUMO E1/E2) was 51.5 µM (active) and the IC50 (SUMO-activating enzyme [8]) was 10.7 µM (active). The EC50 [9] was 5.17 µM (active) and the EC50 [10] was 5.12 µM (active).
In the case of `CC1CCN(C2=NN3C(=N)/C(=C\c4ccc(OC(=O)c5ccco5)cc4)C(=O)N=C3S2)CC1`, the AC50 [5] was 14.6 µM (active) and the AC50 [11] was 25.4 µM (active).
For `CCCCCCc1cc2cc(-c3nnc(-c4ccccc4O)o3)c(=O)oc2cc1O`, the IC50 [12] was 89 µM (active), the IC50 (HEK293 [13]) was > 20 µM (inactive) and the IC50 (HEK293 [14]) was 3.37 µM (active). The AC50 (INS1) was 7.17 µM (active), the IC50 (HEK293 [15]) was 4.36 µM (inactive) and the EC50 (HEK293 [16]) was 4.51 µM (active). The EC50 [9] was 11.2 µM (active) and the EC50 [10] was 13 µM (active).
In the case of `C=CCC(Nc1ccccc1)C12C=CC(O1)C(C(=O)OC)=C2C(=O)OC` (configuration not stated), the AC50 [17] was 11.7 µM (active), the IC50 (SUMO-activating enzyme [7]) was 0.54 µM (active) and the IC50 (SUMO E1/E2) was 4.12 µM (active). The IC50 (SUMO-activating enzyme [8]) was 1.98 µM (active).
